The values that follow come from article PMC8143291, “Cytotoxicity and Microbicidal Activity of Commonly Used Organic Solvents: A Comparative Study and Application to a Standardized Extract from Vaccinium macrocarpon” (Toxics, 2021).

For assay [1], the system named is Candida Albicans SAIMC 562. Nature of the assay: Broth microdilution MIC/MBC. To be noted: 24 h exposure; v/v; n = 3. In kind it is cell-based. An excerpt: The bacterial strains used for AST of the solvents included: Staphylococcus aureus (ATCC 29213), Staphylococcus aureus—MRSA (NBIMCC 8327—resistant to methicillin and oxacillin, National Bulgarian Collection for Industrial Microorganisms and Cell Cultures, Sofia, Bulgaria), Streptococcus pyogenes (SAIMC 10535, Collection of the Stephan Angeloff Institute of Microbiology, Sofia, Bulgaria), Enterococcus faecalis (ATCC 29212), Escherichia coli (ATCC 35218), Pseudomonas aeruginosa (ATCC 27853), and Yersinia enterocolitica (IP864 O:3, Collection of Institut Pasteur, Paris, France). The selected strains are the most often investigated ones in the AST research studies in correspondence with the standard ISO 20776-1 Part 1: Reference method for testing the in vitro activity of antimicrobial agents against rapidly growing aerobic bacteria involved in infectious diseases. […] The strains S. aureus, MRSA, E. coli and E. faecalis were grown on Mueller–Hinton broth/agar (MHB/MHA); S. pyogenes, P. aeruginosa, Y. enterocolitica and C. albicans were grown on brain heart infusion (BHI) broth/agar; E. coli was also grown on Luria–Bertani broth/agar (LBB/LBA).
The minimum inhibitory concentration (MIC) for each solvent was estimated by the broth microdilution method (BMD) in 96-well microplates, following ISO 20776/1-2006 [3] and CLSI protocols. Briefly, a standardized bacterial inoculum was prepared from each bacterial species by suspending 3–4 colonies from a pure culture into 4 mL sterile saline. The turbidity of the inocula was adjusted to McFarland 0.5 (1.0 × 10^8 CFU/mL, λ = 600 nm), and 50 µL were resuspended in 10 mL of the appropriate culture medium for each strain. The bacterial inocula were added to microtiter trays containing equivalent volumes of medium loaded with the relevant solvent in concentrations varying from 0.025 to 25% volume fraction. The final volume of each sample was 100 µL/well. The plates were incubated at 37 °C for 24 h. The pure culture medium served as a negative control. Every MIC was evaluated visually as the lowest concentration without visible growth. […] MBC was defined as the lowest compound’s concentration reducing the colony growth of the initial bacterial inoculum by ≥ 99.9%.
Background: Broth dilution looks for growth in wells or tubes with falling amounts of substance.

The subject of assay [2] is HaCaT (immortalized human keratinocytes). Nature of the assay: MTT dye-reduction cytotoxicity assay (ISO 10993-5). In kind it is cell-based. Particulars: solvent alone, n = 3; for MTC (maximum tolerated concentration): 72 h, at least 70% of cells viable; for IC50 (CI 95%): 72 h incubation. From the text:
The cell lines utilized in this study included the human tumor lines A-375 (malignant melanoma) and A-431 (non-melanoma epidermoid squamous skin carcinoma) as well as the models for non-tumorigenic cells—HaCaT (immortalized human keratinocytes) and CCL-1^TM (transformed mouse fibroblasts, NCTC clone 929). The first three cell lines were obtained from CLS Cell Lines Service (GmbH, Eppelheim, Germany). CCL-1^TM was purchased from the American Type Culture Collection (ATCC, Manassas, VA, USA). Cells were maintained in a controlled environment—sterile cell culture flasks in a CO2 incubator Panasonic MCO-18AC (Panasonic Healthcare co., ltd, Oizumi-Machi, Japan) at 37 °C and a humidified atmosphere containing 5% CO2. CCL-1 was cultured in MEM with 10% heat-inactivated horse serum and 2 mM L-glutamine, and the cell culture medium for the rest of the cell lines was DMEM-HG with 4.5 g/L glucose with the addition of 10% heat-inactivated fetal bovine serum and 4 mM L-glutamine. Pen/strep (concentration of penicillin G sodium 10^5 Units/L and of streptomycin sulfate 100 mg/L) was added to both culture media. The cell lines were maintained as an adherent monolayer in a log phase. The cells were sub-cultivated about 1–3 times per week after the monolayer reached 80–90% confluence. The medium was removed from the flask, and the cell monolayer was washed with 3–5 mL PBS. The cells were incubated with 0.05% EDTA in PBS for 8–10 min, followed by the next step where all cell lines were subjected to enzyme cell detachment. HaCaT and CCL-1 monolayers were detached with 1 mL solution of trypsin/EDTA (0.1%/0.05% for HaCaT and 0.25% (w/v)/0.53 mM for CCL-1) and incubated for 2–5 min at 37 °C (for HaCaT) or at room temperature (for CCL-1 cells), whereas Accutase® was used for A-375 and A-431 lines. The incubation lasted until the separation and dispersion of the cells in the monolayer were observed using light microscopy. In the end, all cell lines were resuspended in 10 mL medium and centrifuged for 3 min at 300× g. The cell pellet was resuspended in fresh medium and sub-cultivated at a seeding density of 1.0 × 10^4 cells/cm^2.
The MTT test was performed in order to determine the median inhibitory (IC50) and MTC concentrations of the solvents and PAC according to Annex C, ISO 10993-5 [2, 21]. Briefly, 100 µL of the cell suspension (1 × 10^5 cells/mL) were seeded per well in 96-well plates with a flat bottom. The cells were incubated for 24 h, allowing them to enter the log phase of their growth. On the 24th hour, the cells were treated with the solvents or CystiCran® solutions in concentrations ranging between 0.004% and 2% volume fraction (v/v) and incubated further for 72 h. The incubation periods are following the recommendations of the FDA guide for the use of ISO 10993-1 [1]. At the end of the incubation period, 10 µL of an MTT solution (5 mg/mL) were added to each well, and the plates were kept at 37 °C for 2 hours. Thereafter, the medium was aspirated, and the formed formazan crystals were dissolved in 100 μL/well of 2-propanol supplemented with 5% formic acid. The same solvent was used as a blank. Untreated cells were considered as a negative control. […] The absorption was measured at 540 nm (reference filter at 690 nm) on a microplate reader ELx800 (BioTek Instruments, Inc., Winooski, VT, Winooski, VT, USA).
The IC50 values from the MTT assay were evaluated with a non-linear regression analysis (Curve fit, GraphPad Prizm 6.01 software, GraphPad Software Inc., San Diego, CA, USA) using sigmoidal concentration–response curves. The cell viability is presented as a percentage of the untreated control. At least four wells were seeded for every concentration. Three independent assays were performed (n = 3).
In general terms: Tetrazolium dyes change colour on reduction, which living cells bring about.

The test system of a further assay is S. epidermidis. Also noted: method as in doi:10.5580/b43. Particulars: in the presence of 6% solvent; cited from earlier work.

Some results are limits rather than exact numbers.

Turning to “polyethylene glycol of average molecular weight 400 [PEG-400]”, in assay [1], the MBC was >25% and the MIC was >25%. For the same molecule, the “MTC (maximum tolerated concentration)” value in assay [2] is on record as 0.41 % (v/v).

On to `C[S+](C)[O-]` [DMSO, dimethyl sulfoxide], for which, in assay [1], the MBC is listed as 6.25% and the MIC is on record as 6.25%. Further, the “IC50 (CI 95%)” value in assay [2] was 1.25 % (v/v). For the same molecule, in the assay on S. epidermidis, the survival is listed as 15%.

For the molecule `CCO` [EtOH, ethanol], in assay [1], the MBC is given as >25% and the MIC is on record as >25%. Moreover, in assay [2], the “MTC (maximum tolerated concentration)” value was > 2 % (v/v) and the “IC50 (CI 95%)” value is > 2 % (v/v). Also, in the assay on S. epidermidis, the survival is on record as 26%.
